Read-outs that look alike come from different tables or passages of the source.
Experiments:
[1] = tested on: CD22 surface expression in JB cells; test: CD22 surface expression in JB cells (flow cytometry); details: 1 nM or 10 nM, 48 h, n = 6
Experimental: (§19) Compound was washed out and cells were sub-cultured for the indicated times. […] CD22 surface expression was then assayed by flow cytometry (n = 3 biological replicates; data presented as mean values ± SE). c JB cells were incubated with 1 nM (blue bars) or 10 nM (orange bars) of compound for 48 h. CD22 surface expression was then assayed by flow cytometry (n = 6 biological replicates; data presented as mean values ± SE). d 2F7 cells were incubated with 1 nM (blue bars) or 10 nM (orange bars) of compound for 48 h. CD22 surface expression was then assayed by flow cytometry (n = 6 biological replicates; data presented as mean values ± SE).
(§20) JB is an Epstein–Barr virus (EBV)-negative AIDS-lymphoma cell line originally grown out of a bone marrow sample derived from an HIV+ individual, which harbors the Burkitt lymphoma translocation[66]. 2F7 is an AIDS-associated non-Hodgkin’s lymphoma cell line of the Burkitt subtype, which is positive for EBV[67].
(§21) AIDS-NHL cell lines were incubated in IF10 medium, consisting of IMDM
(§22) medium (Life technologies) containing 10% fetal bovine serum (FBS, Omega Scientific), 100
(§23) units/mL of penicillin, and 100 μg/ml of streptomycin (Invitrogen). Cells were incubated at 37 °C
(§24) AIDS-NHL cells were cultured in a u-bottomed 96-well
(§25) tissue culture plates with a cell density of 200,000 cells/well in a 200 μL volume of IF10 media
(§26) were exposed to compound for the either 24 or 48 h before staining and flow cytometric analysis
(§27) Cells in each well were washed with phosphate buffered saline (PBS) containing
(§28) 2% FBS, then cells were centrifuged for 9 min at 233 xg and resuspended in 50 μL of a 1:1 dilution
(§29) of phosphate buffered saline (PBS): Human AB serum (Sigma).
(§30) cells were washed and fixed in 2% paraformaldehyde. Stained samples were stored at 4 °C.
(§31) cytometry samples were analyzed using a FACSCelesta (BD Biosciences) flow cytometer and data
(§32) were analyzed using FlowJo software (version 10).

PKCα = biological target: T1, PKCα (Homo sapiens, UniProt P17252); test: PKC competitive binding assay with [3H]-phorbol dibutyrate (PKCα)
T1 construct: purchased Invitrogen
Experimental: (§1) With a panel of compounds bearing diverse functionality at C13, we began to explore how these modifications affect PKC binding and biological function. Because an obvious prerequisite for PKC pathway involvement is binding to PKC, compounds were initially evaluated for PKC affinity in a cell-free competitive binding assay with tritiated phorbol dibutyrate ([^3H]-PDBu). Assays were performed with representative members of both the conventional (PKCα) and novel (PKCδ) PKC families. Subsequently, compounds were assayed for PKC isoform translocation in real time in living cells using an optical assay. Translocation to the plasma membrane is the hallmark of PKC activation[18],[57],[60] and therefore monitoring the subcellular localization of a PKCδ-GFP fusion protein via confocal microscopy offers a convenient method for determining whether a compound enters a cell and engages its PKC isoform target. Finally and of clinical significance, we also determined the effect of compounds on CD22 surface expression in vitro in NALM6 cells, an ALL cell line previously studied in connection with CD22-targeted CAR T cell therapy, and two additional lymphoma cell lines[11],[31],[65].
(§2) PKC Binding Assay Protocol […]
(§3) competition with 3H-phorbol-12,13-dibutyrate (3H-PDBu) as described below. This procedure entails a glass-fiber filtration method to determine bound radioligand.
(§4) Preparation of PKC binding assay buffer
(§5) To a 50 mL polypropylene tube was added Tris-HCl (pH 7.4, 1 M, 1 mL), KCl (1 M, 2 mL), CaCl2 (0.1 M, 30 μL), and bovine serum albumin (BSA, 40 mg, Sigma-Aldrich). This mixture was diluted to 20 mL with deionized H2O and mixed gently. The buffer was stored on ice until use. The final […]
(§6) Supplementary Table1. PKC binding assay buffer composition.
(§7) Preparation of phosphatidylserine (PS) vesicles
(§8) For every two assays, 3.5 mg phosphatidylserine (Avanti Polar Lipids, porcine, 25 mg/mL CHCl3 solution) was concentrated by removing chloroform under a stream of nitrogen followed by reduced pressure. The solid PS was suspended as vesicles in freshly prepared PKC binding assay buffer (3.5 mL) by sonicating six times for 30 sec, with a 30 sec rest between sonications (Branson Sonifier 250, power = 2, 50% duty cycle). The resulting milky cloudy mixture (1 mg/mL) was stored […]
(§9) Preparation of PKC isoform solution
(§10) Assay PKC was prepared by dissolving a 4 μg aliquot of the indicated recombinant human PKC isoform (Invitrogen) into 11.6 mL of PKC binding assay buffer (this amount is sufficient for two assays). The diluted PKC was stored on ice for immediate use.
(§11) Preparation of 3H-PDBu solution
(§12) 3H-PDBu (American Radiolabeled Chemicals, Inc.; 1 mCi/mL acetone solution; specific activity: […]) was diluted 10-fold with DMSO. The resulting 500 nM stock solution was further diluted with DMSO to 30 nM.
(§13) Preparation of analog compound dilutions
(§14) Compound dilutions were prepared by serially diluting from a chosen "high" concentration by factors of 3 or 4. For each analog compound, seven concentrations were used to define the […]
(§15) To a polypropylene tube was added 3.3 mL of 1 mg/mL PS vesicles solution, 11 mL of PKC isoform solution, and 1.1 mL of 30 nM 3H-PDBu solution were added. The resulting solution was vortexed to mix and stored on ice.
(§16) PKC binding assay protocol
(§17) - Glass-fiber filters (Whatman GF/B) were prepared by soaking them in a solution of aqueous polyethyleneimine (10% by vol, 18 mL) in deionized water (600 mL) for ≥1h.
(§18) - 500 mL "rinsing buffer" of 20 mM Tris, pH 7.4 was cooled on ice for the duration of the incubation period and for the remainder of the assay.
Triplicate data points were obtained for each analog concentration. For each data point, 280 μL of "Master Mix" Solution and 20 μL of analog compound at a specified concentration were added to a polypropylene tube. Non-specific 3H-PDBu binding was assessed in triplicate by substitution

[2] = tested on: CD22 surface expression in 2F7 cells; test: CD22 surface expression in 2F7 cells (flow cytometry); details: 1 nM or 10 nM, 48 h, n = 6
Experimental: as §19, §20, §21, §22, §23, §24, §25, §26, §27, §28, §29, §30, §31, §32

PKC = PKC competitive binding assay, isoform not specified; set-up: species or system human
Experimental: as §1, §2, §3, §4, §5, §6, §7, §8, §9, §10, §11, §12, §13, §14, §15, §16
- Glass-fiber filters (Whatman GF/B) were prepared by soaking them in a solution of […]

[3] = tested on: CD22 surface expression in NALM6 cells; test: CD22 surface expression in NALM6 cells (flow cytometry); assay type: cell-based, human
Experimental: CD22 Surface Expression Protocol – NALM6 Cells […]
unless otherwise noted below) at 37 ° C in an incubator (5% CO2). Cell cultures were maintained […]
Cell suspension from a confluent T75 flask (Fisher) was transferred to a 15 mL falcon tube and centrifuged at 1100 rpm for 7 minutes. The supernatant was aspirated, and the cell pellet was […]
Cells were counted using a Countess II Automated Cell
199 µL of this stock was added to 24 wells (enough for triplicate measurements for 8 different experimental conditions) in a 96-well plate. Dosing was […]
each experiment. 1 µL of DMSO or the appropriate stock solution of compound in DMSO was added to each well. Cells were incubated for 24 hours, at which point the cell suspensions were transferred to 1.5 mL Eppendorf tubes and diluted with 1.0 mL of PBS (Hyclone, without Ca2+ or Mg2+). Samples were centrifuged at 2000 rpm for 5 min at RT. The supernatant was aspirated, […]
Cells were sub-cultured between 2 […]
surface expression was assayed by flow cytometry.
Cells from one well were counted using a Countess II Automated Cell Counter (Fisher). ~200,000 – 300,000 cells from each well were added to 1.5 mL Eppendorf tubes containing PBS (final volume ~1.2 mL). The cell suspensions were centrifuged at 1500 rpm for 7 minutes at 4 °C. The supernatant was aspirated, and the cell pellet was resuspended in 99 µL of pre-chilled FACS […]
buffer (0.5% w/v BSA in PBS). […]
minutes. Samples were then diluted with an additional 1.0 mL of FACS buffer and centrifuged at 1500 rpm for 7 minutes at 4 °C. The supernatant was aspirated, the cell pellets were resuspended in 200 µL FACS buffer, and the resulting suspensions were transferred to FACS tubes (Fisher, […]
Cells were stained with DAPI and CD22 surface expression was analyzed using the FACScan Analyzer at the Stanford Shared FACS Facility. Data analysis was performed using FlowJo and Microsoft Excel.

PKCδ-GFP fusion protein = biological target: T2, PKCδ-GFP fusion protein (Homo sapiens, UniProt Q05655); test: PKCδ-GFP translocation assay in living CHO-k1 cells (confocal microscopy); assay type: cell-based, Chinese hamster; details: for minimum effective concentration required to induce translocation of PKC-GFP to the membrane: tested at 200 and 1000 nM
T2 construct: expressed in transfected cells; host or cells: CHO-k1 (Chinese hamster ovary, ATCC)
T2 sequence (Q05655 whole entry, the tested form may be a part): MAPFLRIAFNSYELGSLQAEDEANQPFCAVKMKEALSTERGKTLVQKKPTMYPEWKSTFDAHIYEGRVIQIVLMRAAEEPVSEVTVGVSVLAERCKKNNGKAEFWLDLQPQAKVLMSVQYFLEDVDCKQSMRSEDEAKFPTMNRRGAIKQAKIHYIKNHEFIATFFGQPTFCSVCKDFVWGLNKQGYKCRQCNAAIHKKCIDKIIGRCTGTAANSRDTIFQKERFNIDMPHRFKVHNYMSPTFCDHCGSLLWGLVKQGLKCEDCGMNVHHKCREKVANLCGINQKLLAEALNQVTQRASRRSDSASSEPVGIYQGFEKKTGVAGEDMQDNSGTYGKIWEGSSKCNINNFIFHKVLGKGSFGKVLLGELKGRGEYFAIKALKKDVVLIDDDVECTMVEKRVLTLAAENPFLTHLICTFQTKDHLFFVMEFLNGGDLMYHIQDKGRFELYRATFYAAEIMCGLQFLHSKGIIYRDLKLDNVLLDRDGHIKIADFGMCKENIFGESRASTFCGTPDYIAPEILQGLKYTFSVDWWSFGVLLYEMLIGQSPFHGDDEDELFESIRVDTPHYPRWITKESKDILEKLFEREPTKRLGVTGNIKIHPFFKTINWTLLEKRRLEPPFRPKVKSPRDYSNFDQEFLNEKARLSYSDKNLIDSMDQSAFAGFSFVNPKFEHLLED
Experimental: as §1
Scale bar represents 25 μm. Experiments performed in n = 3 biological replicates. b–d Cytosolic fluorescence normalized to t = 0 (time immediately prior to addition of compound to media) and plotted against time. Error bars excluded for clarity (data presented as the mean of n = 3 biological replicates). Individual curves with error bars included in Supplementary Information.
PKCδ-GFP Translocation Assay Protocol
Chinese hamster ovary factor K1 (CHO-k1, ATCC) cells were cultured in F-12 Kaighn’s media (Hyclone, 10% fetal bovine serum, 1% penicillin/streptomycin added, reffered to as F-12 +/+ below) at 37 ° C in an incubator (5% CO2). Cell cultures were maintained by splitting cells 1:3 when they reached ~75-100% confluence (every 2-3 days) as follows:
(Gibco) was used to remove the cells from the culture flask (T75, Falcon). 1 mL of the cell suspension was then added to 9 mL of fresh F-12 +/+ and the sample was sub-cultured until reaching confluence (~2-3 days).
Cells were counted using a Countess II Automated Cell Counter (Fisher). The cell suspension was diluted to 240,000 cells/mL with fresh F-12 +/+ and 2.5 mL of this diluted stock was added to one well in a 6-well plate. The cells were then cultured for 24 hours.
Cells were transfected with Lipofectamine 2000 reagent (Invitrogen) or DA 13:11 at a 10:1 charge […]
F-12 +/+ was aspirated and cells were washed with F-12 -/-. 2 mL of fresh F-12 -/- was then added to each well, taking care not to disturb adherent cells. For each well of CHO-k1 cells, 12.5 µL Lipofectamine 2000 reagent (Invitrogen) was added to 250 µL Opti-MEM reduced serum media (Invitrogen) in a polypropylene tube and incubated for 20 minutes at RT. Meanwhile, for each well, 4 µg of PKCδ-GFP pDNA and 250 µL Opti-MEM reduced serum media was added to a separate polypropylene tube. 250 µL of the Lipofectamine 2000 suspension was added to the DNA suspension and the solution incubated for 30 minutes at RT. 500 µL of the Lipofectamine/DNA suspension was added to the respective wells of the 6-well plate. The cells were then incubated at 37 ° C (5% CO2) for ~24 hrs.
F-12 +/+ was aspirated and cells were washed with F-12 -/-. 2.4 mL of fresh F-12 -/- was then added to each well, taking care not to disturb adherent cells. A 4 µg aliquot of PKCδ-GFP pDNA was added to PBS (pH 5.5, final volume 100 µL). 5.6 µL of DA 13:11 (2 mM stock in DMSO) was then added to the DNA solution, and the mixture was gently mixed (by flicking) for 20 seconds, at which point it was added directly to the respective wells of the 6-well plate.

PKCδ = biological target: T3, PKCδ (Homo sapiens, UniProt Q05655); test: PKC competitive binding assay with [3H]-phorbol dibutyrate (PKCδ); details: cell-free, competition with [3H]-PDBu, PS vesicles
T3 construct: purchased Invitrogen
T3 sequence (Q05655 whole entry): as the sequence (Q05655 whole entry, the tested form may be a part) above
Experimental: as §1, §2, §3, §4, §5, §6, §7, §8, §9
Assay PKC was prepared by dissolving a 4 μg aliquot of the indicated recombinant human PKC isoform (Invitrogen) into 11.6 mL of PKC binding assay buffer (this amount is sufficient for two assays). The diluted PKC was stored on ice for immediate use. […]
μCi/mmol) was diluted 10-fold with DMSO. The resulting 500 nM stock solution was further diluted with DMSO to 30 nM.
as §13, §14, §15, §16, §17, §18
Triplicate data points were obtained for each analog concentration. For each data point, 280 μL of "Master Mix" Solution and 20 μL of analog compound at a specified concentration were added to a polypropylene tube. Non-specific 3H-PDBu binding was assessed in triplicate by substitution […]
μM). Maximal 3H-PDBu binding was assessed in triplicate by substitution of the analog compound with 20 μL DMSO. The solutions were vortexed to mix, incubated at 37 °C for 10 min, and […]

CCC/C=C/C=C/C(=O)O[C@H]1/C(=C/C(=O)OC)C[C@H]2C[C@H]([C@@H](C)O)OC(=O)C[C@H](O)C[C@@H]3C[C@H](OC(C)=O)C(C)(C)[C@](O)(C[C@@H]4C/C(=C/C(=O)OC)C[C@H](/C=C/C(C)(C)[C@]1(O)O2)O4)O3 [Bryostatin 1, reference compound]
upregulation of CD22 surface expression [1]: ~ 2 fold
Ki (PKCα): 0.0008 µM
upregulation of CD22 surface expression [2]: ~ 2 fold
PKC binding affinity in words (PKC; conventional and novel PKC isoforms): single-digit nanomolar
duration of sustained increase in CD22 surface expression following treatment ([3]; NALM6 cells, 10 nM for 24 h, then washout and sub-culture): up to 7 days
increase in CD22 surface density ([3]; NALM6 cells, 24 h incubation, Fig. 6): > 2 fold

CCCC=CC=CC(=O)OC1C(=CC(=O)OC)CC2CC(C(C)O)OC(=O)CC(O)CC3CC(OC(C)=O)C(C)(C)C(O)(CC4CC(=CC(=O)OC)CC(C=CC(C)(C)C1(O)O2)O4)O3 (stereo not drawn) [SUW201]
upregulation of CD22 surface expression [1]: ~ 2 fold
Ki (PKCα; read-out: Ki PKCα, cell-free, competition with [3H]-PDBu, PS vesicles): 0.00054 µM
upregulation of CD22 surface expression [2]: ~ 2 fold

C=CCOC(=O)/C=C1/C[C@H]2C[C@]3(O)O[C@H](C[C@@H](O)CC(=O)O[C@@H]([C@@H](C)O)C[C@@H]4C/C(=C\C(=O)OC)[C@H](OC(=O)/C=C/C=C/CCC)[C@@](O)(O4)C(C)(C)/C=C/[C@@H](C1)O2)C[C@H](OC(C)=O)C3(C)C [SUW229]
upregulation of CD22 surface expression [1]: ~ 2 fold
upregulation of CD22 surface expression [2]: ~ 2 fold
fold induction at 0.001 µM ([3]; Homo sapiens, NALM-6, 24 h, NALM6 cells at 1 nM relative to DMSO control, 24 h incubation, washout, 24 h sub-culture, n = 3, read-out: Fold increase CD22 expression): 2.35
Emax at 0.2 µM (PKCδ-GFP fusion protein; CHO-K1, 200 nM compound, CHO-k1 cells, n = 3, read-out: % Translocation (maximum translocation of PKCδ-GFP to the plasma membrane)): 50%
minimum effective concentration required to induce translocation of PKC-GFP to the membrane (PKCδ-GFP fusion protein; CHO-k1 cells): 200 nM
PKC activation dynamics (shape of translocation curve) (PKCδ-GFP fusion protein; Fig. 5c, d): more sustained linear activation dynamics

CCCC=CC=CC(=O)OC1C(=CC(=O)OC)CC2CC(C(C)O)OC(=O)CC(O)CC3CC(OC(C)=O)C(C)(C)C(O)(CC4CC(OC(=O)CN(C)C)CC(C=CC(C)(C)C1(O)O2)O4)O3 (stereo not drawn) [SUW212]
Ki (PKCα; cell-free, competition with [3H]-PDBu, PS vesicles, read-out: Ki PKCα): 0.04 µM
decrease in affinity to PKC (PKC; charged substituents at C13, Table 1 data): 20-100 fold
Emax at 1 µM (PKCδ-GFP fusion protein; CHO-K1, 1000 nM compound, CHO-k1 cells, n = 3, read-out: % Translocation (maximum translocation of PKCδ-GFP to the plasma membrane)): 50%
minimum effective concentration required to induce translocation of PKC-GFP to the membrane (PKCδ-GFP fusion protein; CHO-k1 cells): 1000 nM
sustained translocation of PKC (PKCδ-GFP fusion protein; at up to 1000 nM): did not achieve sustained translocation of PKC
Ki (PKCδ): 0.024 µM
